Where two headings read alike, the source gives them in different places.
Molecular target: HPK1 (Homo sapiens, UniProt Q92918)
Assay: HPK1 Biochemical Assay (ADP-Glo luminescence; low ATP 10 μM or high ATP 200 μM)
[1] = HPK1 ADP-Glo assay, high ATP (200 μM ATP, 5 nM HPK1), read-out: Biochemical Potency (high ATP)
[2] = 2 nM HPK1, 10 μM ATP, read-out: Biochemical Potency (low ATP)
[3] = HPK1 ADP-Glo assay, low ATP (10 μM ATP, 2 nM HPK1), read-out: Biochemical Potency (low ATP)

Sequence of HPK1 (Q92918 whole entry, species assumed): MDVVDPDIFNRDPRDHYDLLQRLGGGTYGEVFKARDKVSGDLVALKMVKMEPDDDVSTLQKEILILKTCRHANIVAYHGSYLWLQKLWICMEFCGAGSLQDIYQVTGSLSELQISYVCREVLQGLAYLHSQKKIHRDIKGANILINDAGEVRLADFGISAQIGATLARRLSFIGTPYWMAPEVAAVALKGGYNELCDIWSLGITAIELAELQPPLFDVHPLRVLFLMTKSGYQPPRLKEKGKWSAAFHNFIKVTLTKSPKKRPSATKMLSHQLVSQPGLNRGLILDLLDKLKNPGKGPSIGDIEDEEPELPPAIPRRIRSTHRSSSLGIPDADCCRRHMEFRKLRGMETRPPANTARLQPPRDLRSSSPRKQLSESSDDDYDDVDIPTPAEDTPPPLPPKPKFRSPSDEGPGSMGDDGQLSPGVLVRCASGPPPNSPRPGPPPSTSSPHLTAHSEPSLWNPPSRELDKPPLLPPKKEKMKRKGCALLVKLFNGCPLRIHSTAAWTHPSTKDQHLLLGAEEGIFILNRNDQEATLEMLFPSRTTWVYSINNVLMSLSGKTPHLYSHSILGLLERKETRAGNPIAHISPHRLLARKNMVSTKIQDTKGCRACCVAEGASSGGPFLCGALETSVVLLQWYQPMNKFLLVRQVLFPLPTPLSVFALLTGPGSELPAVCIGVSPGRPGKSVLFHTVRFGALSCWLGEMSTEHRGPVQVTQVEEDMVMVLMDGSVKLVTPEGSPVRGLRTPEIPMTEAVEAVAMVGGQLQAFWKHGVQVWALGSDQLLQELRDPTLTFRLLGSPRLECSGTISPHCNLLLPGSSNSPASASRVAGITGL

Row | Structure (SMILES) | IC50 [2] [nM] | other results
1 | Cc1cc(Nc2cc3nc(-c4cccc(C(=O)N(C)[C@@H]5CCOC5)c4)sc3cn2)nc(N2C[C@@H]3C[C@H]2CN3CCO)n1 [Example 559] | – | IC50 [1]: < 100 nM
2 | COc1ccc(N2C[C@@H]3C[C@H]2CN3C)nc1Nc1cc2nc(-c3ncccc3C)sc2cn1 [Example 118, 3-Methoxy-6-[(1S,4S)-5-methyl-2,5-diazabicyclo[2.2.1]heptan-2 yl]-N-[2-(3-methylpyridin-2-yl)-[1,3]thiazolo[5,4-c]pyridin-6-yl]pyridin-2-amine] | < 100 | –
3 | CC(C)c1ccc(Nc2cc3nc(-n4cccn4)sc3cn2)nc1CN1CCCC1 [Example 228, 5-(Propan-2-yl)-N-[2-(1H-pyrazol-1-yl)-[1,3]thiazolo[5,4-c]pyridin-6-yl]-6-[(pyrrolidin-1-yl)methyl]pyridin-2-amine] | < 100 | –
4 | CN1C[C@@H]2C[C@H]1CN2c1nccc(Nc2cc3nc(N4CCc5cnccc5C4)sc3cn2)n1 [Example 426] | – | IC50 [3]: 100 to 1000 nM
5 | Cc1cccnc1-c1nc2cc(Nc3cc(N4C[C@@H]5C[C@H]4CN5)ccn3)ncc2s1 [Example 86, 4-[(1S,4S)-2,5-Diazabicyclo[2.2.1]heptan-2-yl]-N-[2-(3-methylpyridin-2-yl)-[1,3]thiazolo[5,4-c]pyridin-6-yl]pyridin-2-amine] | > 5000 | –
6 | CN1C[C@@H]2C[C@H]1CN2c1nccc(Nc2cc3nc(-c4ccnc5c4cnn5C)sc3cn2)n1 [Example 294, N-(2-{1-methyl-1H-pyrazolo[3,4-b]pyridin-4-yl}-[1,3]thiazolo[5,4-c]pyridin-6-yl)-2-[(1 S,4S)-5-methyl-2,5-diazabicyclo[2.2.1]heptan-2-yl]pyrimidin-4-amine] | < 100 | –
7 | Cc1cc(Nc2cc3nc(-c4ccnc(N)c4)sc3cn2)nc(O[C@H]2CCNC2)c1 [Example 170, N-[2-(2-Aminopyridin-4-yl)-[1,3]thiazolo[5,4-c]pyridin-6-yl]-4-methyl-6-[(3S)-pyrrolidin-3-yloxy]pyridin-2-amine] | < 100 | –
8 | CN(C)S(=O)(=O)c1cccc(-c2nc3cc(Nc4cccc(N5C[C@@H]6C[C@H]5CN6)n4)ncc3s2)c1 [Example 293] | < 100 | –
9 | CN1C[C@@H]2C[C@H]1CN2c1cncc(Nc2cc3nc(-c4cccc(C(=O)N5CCCC5)c4)sc3cn2)n1 [Example 147, 6-[(1S,4S)-5-Methyl-2,5-diazabicyclo[2.2.1]heptan-2-yl]-N-{2-[3-(pyrrolidine-1-carbonyl)phenyl]-[1,3]thiazolo[5,4-c]pyridin-6-yl}pyrazin-2-amine] | < 100 | –
10 | Cc1cccnc1-c1nc2cc(Nc3ccc4c(n3)[C@@](C)(N)CCC4)ncc2s1 [Example 578] | – | IC50 [3]: < 100 nM
11 | Cc1ccc(Nc2cc3nc(-c4cnn(C5CCOC5)c4)sc3cn2)nc1CN1CCCC1 (centres unmarked) [Example 38, 5-Methyl-N-{2-[1-(oxolan-3-yl)-1H-pyrazol-4-yl]-[1,3]thiazolo[5,4-c]pyridin-6-yl}-6-[(pyrrolidin-1-yl)methyl]pyridin-2-amine] | < 100 | –
12 | Cc1cccnc1-c1nc2cc(Nc3ccc(C(C)C)c(CN4CCCC4)n3)ncc2s1 [Example 226, N-[2-(3-Methylpyridin-2-yl)-[1,3]thiazolo[5,4-c]pyridin-6-yl]-5-(propan-2-yl)-6-[(pyrrolidin-1-yl)methyl]pyridin-2-amine] | < 100 | –
13 | Cc1cc(Nc2cc3nc(-c4cccc(C(=O)N(C)[C@@H]5CCCOC5)c4)sc3cn2)nc(N2C[C@@H]3C[C@H]2CN3CCO)n1 [Example 542] | – | IC50 [1]: < 100 nM
14 | CN(C)C(=O)c1cc(-c2nc3cc(Nc4ccnc(N5C[C@@H]6C[C@H]5CN6C)n4)ncc3s2)ccn1 [Example 127, N,N-Dimethyl-4-[6-({2-[(1S,4S)-5-methyl-2,5-diazabicyclo[2.2.1]heptan-2-yl]pyrimidin-4-yl}amino)-[1,3]thiazolo[5,4-c]pyridin-2-yl]pyridine-2-carboxamide] | < 100 | –
